Columns and labels:
[1] = system: deoxygenation-activated cation conductance in human SS red cells; experiment: On-cell patch clamp of deoxygenation-activated cation conductance, symmetric Na methanesulfonate; assay type: cell-based; conditions: on-cell patch; for effect on deoxygenation-induced increase in cation conductance: 1 μM in the pipette / outside of membrane
Procedure: Blood cell preparation: Human SS and AA blood was obtained under IRB-approved protocols of Children's Hospital and Beth Israel Deaconess Medical Center. After buffy coat removal and 5 washes in standard human red cell wash solution containing (in mM) 150 choline Cl, 1 MgCl, and 10 Tris-MOPS, pH 7.4, red cells were resuspended in storage solution containing (in mM) 145 KCl, 15 NaCl, and 10 HEPES, pH 7.4, then kept at 4° C. until used. Human red cells allowed to settle on coverslips were mounted on an inverted microscope in a 200 μl open chamber (WPI, Sarasota, Fla.) and superfused 15 min at room temperature by bath solution containing (in mM) 150 Na methanesulfonate, 10 Na EDTA, and 10 Na HEPES, pH 7.4.
Mouse red cells allowed to settle on coverslips were superfused 15 min with bath solution containing (in mM) either 150 mM Na methanesulfonate, 10 Na EDTA, and 10 Na HEPES, pH 7.4; or 140 NaCl, 4 KCl, 1CaCl2, 1 MgCl2, 10 Na HEPES, pH 7.4. Deoxygenation was achieved by switching superfusate to the same solution gassed ≧30 min prior to the experiment with 100% N2, and by flushing of the perfusion chamber with N2 during the deoxygenation period. The resulting bath pO2 was 18 mm Hg as measured by oxygen electrode (WPI). In the experiments of FIG. 1, deoxygenated cells were subsequently re-oxygenated by exposure to the same superfusate equilibrated with room air.
Washed human or mouse red cells in solution containing (in mM) 140 NaCl, 5 KCl, 1 CaCl2, 1 MgCl2, 10 Na HEPES, pH 7.4 were exposed for 1 hr on a rotary platform in a 37° C. incubator to 25 ppm carbon monoxide (CO) in 5% CO2. CO-exposed cells were then subjected to patch clamp or to calcium imaging experiments within 60 min after return to room air, using the solutions indicated.
On-cell patch clamp: Borosilicate pipettes (Corning 7052) pulled with a Narishige two stage puller or a Sutter P97 puller and fire-polished to resistances of 10-20 MΩ were front-filled and then backfilled. Symmetric bath and pipette solutions for studies of seal resistance stability during reversibility tests of the deoxygenation-activated conductance in SAD mouse red cells were (in mM) 140 NaCl, 4 KCl, 1 CaCl2, 1 MgCl2, 10 Na HEPES, pH 7.4. These conditions yielded tight seals in 13% of patch attempts on SAD cells. For study of deoxygenation-induced monovalent cation permeation in the absence of bath Ca^2+ and Mg^2+ recorded in SAD and Berkeley mouse cells and in human cells, symmetric bath and pipette solutions contained (in mM) 150 Na methanesulfonate, 10 Na EDTA, and 10 Na HEPES, pH 7.4. These conditions yielded tight seals in 16% of patch attempts on SAD mouse red cells, 26% of attempts on Berkeley mouse cells, and 30% of attempts on human SS cells. For study of Ca^2+ permeation in human SS cells, bath and pipette solutions contained (in mM) 100 CaCl2, 10 Na HEPES, pH 7.4. These conditions yielded tights seals on 44% of attempts. For all conditions tested in human red cells, 70% of tight seals were sustained through the solution change accompanying deoxygenation to allow recording of current activity.
On-cell patch currents were recorded with the Axopatch 1-D amplifier (Axon Instruments/Molecular Devices, Sunnyvale, Calif.). Holding potential was −Vp=−50 mV (expressed as the negative of the pipette potential (e.g., equivalent to the intracellular potential with respect to the pipette). To determine current-voltage relationships (I-V curves) in Fetchex or Clampex (PCLAMP, Axon Instruments), the realtime control window in gap-free mode was used to record current traces of 10-30 sec duration at holding potentials ranging from −100 to +100 mV, in 25 mV increments. The bath reference electrode was a silver chloride wire with a 3 M KCl agar bridge. Data was filtered at 500 Hz, digitized at 2 kHz by Clampex, and analyzed offline by Fetchan and Pstat or by Clampfit subroutines of PCLAMP. Holding potentials in on-cell patch experiments were expressed as −Vp, the negative of the pipette potential.

[2] = system: Berkeley sickle mouse red cells; experiment: Fluo-3 fluorescence measurement of [Ca2+]i during deoxygenation, Berkeley cells; assay type: cell-based; conditions: 1 μM bath preincubation
Procedure: Blood was withdrawn by cardiac puncture or from the tail vein of C57B16/J wildtype mice, SAD sickle mice, or Berkeley sickle mice into heparinized syringes by IACUC-approved protocols of Beth Israel Deaconess Medical Center. Buffy coat-depleted cells were washed 5 times in standard mouse red cell wash solution containing (in mM) 172 choline Cl, 10 sucrose, 10 Na Tris-MOPS, pH 7.4, resuspended in storage solution, and kept at 4° C. until use.
Fluorescence measurements of cytosolic [Ca^2+] […]
Measurement of relative changes in [Ca^2+]i by Fluo-3 fluorescence emission was previously validated in intact human (Yang et al. 2000, Blood, 95(7):2421-2425; Andrews et al. 2002, Blood, 199(9):3392-3399) and mouse red cells (Akel et al. 2007, Amer. J. Physiol., 292(5):C1759-1767). […] Fluorescence emission (proportional to [Ca^2+]i) from a 535ds20 bandpass filter was collected from all attached single cells within the arbitrarily selected visual field. […]
Fluo-3 fluorescence from attached cells on each coverslip was recorded 60 sec in room air and then for 10 min after onset of perfusion chamber flushing with humidified 100% N2. […] The y-axis value of 0% change in Fluo-3 fluorescence intensity represented mean intensity recorded from all cells within the coverslip visual field during the 60 sec prior to deoxygenation.

Substance: Grammastola spatulata mechanotoxin 4 (GCLEFWWKCNPNDDKCCRPKLKCSKLFKLCNFSF; listed as Grammastola spatulata) [GsMTx-4]
- effect on deoxygenation-induced increase in cation conductance [1]: prevented
- effect on deoxygenation-induced increase in cation conductance ([1]; listed as GsMTx4): completely inhibit
- NPo after deoxygenation ([1]; 1 μM in the pipette, n=6): 0.003±0.003
- effect on deoxygenation-increased [Ca2+]i [2]: inhibited nearly completely
- effect on deoxygenation-increased [Ca2+]i ([2]; listed as GsMtx-4): prevented
